Measured values from patent US20210330575A1 (DONG KOOK PHARM. CO., LTD, priority 2018, published 2021).

System: nitric oxide (NO) production in LPS-treated RAW264.7 cells
Experiment: Anti-inflammation activity: NO production by Griess reagent
Assay type: cell-based, mouse
Details: LPS-induced RAW264.7, 48 hours, FIG. 2
Experimental: RAW264.7 cells which have been induced to have an inflammation response by LPS in the same manner as above were added to a 96-well plate. […] Then, by using the Griess reagent, the production amount of NO was measured.

## COc1ccc2c(c1)c(CC(=O)O)c(C)n2C(=O)c1ccc(Cl)cc1 [indomethacin]
  NO production (result in words): decreased
